Laboratory results as given in patent US12534742B2, “Compound for regulating gene editing efficiency and application thereof” (Shanghai Institute of Organic Chemistry, Chinese Academy of …, priority 2018, dated 2026).

The compounds below were run against T1, SpyCas9 (Streptococcus pyogenes serotype M1, UniProt Q99ZW2) (assay: Inhibition of plasmid-expressed SpyCas9 editing of endogenous genes in HEK293 cells, T7E1 test). Conditions: HEK293 cells transfected with AAVS1-AS2 and pST-Cas9 plasmids; 10 μM compound; no-drug group 22.4% and 35.1%.
T1 construct: expressed in transfected cells; host or cells: HEK293
T1 sequence (Q99ZW2 whole entry, the tested form may be a part): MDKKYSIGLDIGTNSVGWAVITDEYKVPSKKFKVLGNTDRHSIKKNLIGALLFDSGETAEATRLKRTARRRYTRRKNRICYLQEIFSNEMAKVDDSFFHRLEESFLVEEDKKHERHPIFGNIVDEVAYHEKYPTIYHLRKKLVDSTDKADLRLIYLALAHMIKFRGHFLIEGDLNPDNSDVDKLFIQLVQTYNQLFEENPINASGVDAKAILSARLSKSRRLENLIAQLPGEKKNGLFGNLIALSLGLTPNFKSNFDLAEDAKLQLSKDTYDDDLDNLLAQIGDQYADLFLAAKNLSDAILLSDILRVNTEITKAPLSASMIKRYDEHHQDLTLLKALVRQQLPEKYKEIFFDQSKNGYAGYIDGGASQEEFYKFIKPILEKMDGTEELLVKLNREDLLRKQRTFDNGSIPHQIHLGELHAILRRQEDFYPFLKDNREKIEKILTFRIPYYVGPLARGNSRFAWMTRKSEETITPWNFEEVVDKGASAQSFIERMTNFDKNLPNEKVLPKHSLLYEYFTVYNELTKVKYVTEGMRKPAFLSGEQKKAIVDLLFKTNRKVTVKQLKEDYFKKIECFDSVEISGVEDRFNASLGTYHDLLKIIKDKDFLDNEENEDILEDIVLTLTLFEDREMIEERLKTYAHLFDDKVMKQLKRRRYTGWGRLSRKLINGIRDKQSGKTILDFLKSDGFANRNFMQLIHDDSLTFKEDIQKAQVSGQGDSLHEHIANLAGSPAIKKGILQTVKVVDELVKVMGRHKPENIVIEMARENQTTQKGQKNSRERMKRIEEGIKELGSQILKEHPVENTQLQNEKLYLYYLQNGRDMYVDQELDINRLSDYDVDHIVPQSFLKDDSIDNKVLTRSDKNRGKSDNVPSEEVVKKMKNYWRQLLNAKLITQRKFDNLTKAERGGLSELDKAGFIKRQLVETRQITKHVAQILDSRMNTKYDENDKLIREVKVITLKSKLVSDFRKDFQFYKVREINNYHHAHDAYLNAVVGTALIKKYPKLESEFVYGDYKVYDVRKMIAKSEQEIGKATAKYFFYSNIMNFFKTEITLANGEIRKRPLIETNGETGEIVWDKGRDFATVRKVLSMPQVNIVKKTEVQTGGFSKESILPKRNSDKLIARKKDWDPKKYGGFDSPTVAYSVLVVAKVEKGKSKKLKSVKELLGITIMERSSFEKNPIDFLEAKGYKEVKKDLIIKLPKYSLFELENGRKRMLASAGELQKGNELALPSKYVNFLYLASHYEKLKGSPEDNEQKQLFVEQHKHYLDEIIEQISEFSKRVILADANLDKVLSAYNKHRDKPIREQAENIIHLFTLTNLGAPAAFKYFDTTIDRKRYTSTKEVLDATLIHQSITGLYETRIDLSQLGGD
Format: cell-based
Method: HEK293 cells (10^5 cells/well) were seeded on a 24-well plate. 24 hours after inoculation, cells were transfected with 200 ng AAVS1-AS2 and 200 ng pST-Cas9 plasmid or 200 ng EMX1 and 200 ng pST-Cas9 plasmid in Opti-MEM medium. 6 hours after transfection, DMEM supplemented with 10% FBS and 10 μM drug (Compound 49) was used to replace Opti-MEM. The positive control for Cas9 activity was 200 ng AAVS1-AS2 and 200 ng pST-Cas9 plasmid or 200 ng EMX1 and 200 ng pST-Cas9 plasmid without drug. After the gene editing was completed, the cell genomic DNA was extracted, and the gene editing efficiency was tested by the T7E1 method (see Guschin, D. Y. et al. Methods Mol. Biol. 649, 247-256 (2010))).
The method of this example was the same as in Example 2.
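For IC50 in this document: Cell-based reporter with a SpyCas9 target site placed in EGFP, where NHEJ repair of the cut restores the reading frame, read-out is the share of EGFP-positive cells, lowered by inhibitors.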

Row | SMILES | gene modification rate [%]
1 | CC1=CC(=O)c2c(O)cccc2C1=O [Compound 48] | 0

Same assay, conditions: HEK293 cells transfected with EMX1 and pST-Cas9 plasmids; 10 μM compound; no-drug group 26.5% and 27.9%

Row | SMILES | gene modification rate [%]
2 | CC1=CC(=O)c2c(O)cccc2C1=O [Compound 48] | 0

These compounds were tested against CRISPR/Cas9 from Streptococcus pyogenes (SpyCas9) (Streptococcus pyogenes serotype M1, UniProt Q99ZW2) (assay: cell-based). Conditions: not given.
CRISPR/Cas9 from Streptococcus pyogenes (SpyCas9), sequence (Q99ZW2 whole entry): as the sequence (Q99ZW2 whole entry, the tested form may be a part) above

Row | SMILES | IC50 [µM]
3 | CC(=O)/C=C/c1cc2c(cc1Br)OCO2 [Compound 889] | > 100
4 | C/C(C=O)=C\c1ccccc1 [Compound 827] | > 100
5 | CC(C)c1ccc(OS(=O)(=O)/C=C/c2ccccc2)cc1 [Compound 878] | > 100
6 | CC(C)(C)OC(=O)N1CCN(S(=O)(=O)/C=C/c2ccccc2)CC1 [Compound 866] | > 100
7 | O=C(O)/C=C/c1cccc(O)c1 [Compound 801] | > 100
8 | O=c1c(O)c(-c2ccc(O)c(O)c2)oc2cc(O)cc(O)c12 [Compound 850] | > 100
9 | CSc1ccc(NC(=O)/C=C/c2ccccc2)cc1 [Compound 860] | > 100
10 | COc1cc(-c2ncn(/C=C\C(=O)OC(C)C)n2)cc(C(F)(F)F)c1 [Compound 902] | 1 to 10
11 | O=C(/C=C\n1cnc(-c2cc(C(F)(F)F)cc(C(F)(F)F)c2)n1)N1CC(F)(F)C1 [Compound 903] | 1 to 10
12 | O=C1C=CCC1 [Compound 888] | > 100
13 | C=CC(=O)OC [Compound 828] | > 100
14 | CC1=CC(=O)c2c(O)cccc2C1=O [Compound 48] | 1 to 10
15 | O=S(=O)(/C=C/c1ccccc1)N1CCOCC1 [Compound 864] | > 100
16 | Oc1cc(O)c2c(c1)O[C@H](c1ccc(O)c(O)c1)[C@@H](O)C2 [Compound 814] | > 100
17 | NC(=O)/C=C/c1ccccc1 [Compound 851] | > 100
18 | COc1ccc(/C=C/C(=O)c2ccccc2)cc1 [Compound 111] | 10 to 100
19 | COc1ccc(COCCCCC2=C3CCC(C)CC3CC2=O)cc1 (stereo not drawn) [Compound 897] | > 100
20 | O=C1C=CCCC1 [Compound 885] | > 100
21 | COc1cc(/C=C/c2ccc(O)cc2)cc(OC)c1 [Compound 811] | > 100
22 | C=C(C)C(=O)N(CC)CC [Compound 894] | > 100
23 | COc1ccc(C(=O)/C=C/c2ccccc2)cc1 [Compound 102] | 10 to 100
24 | CC1CC(C)CN(S(=O)(=O)/C=C/c2ccccc2)C1 (stereo not drawn) [Compound 870] | > 100
25 | O=C(/C=C/c1ccccc1)N1CCOCC1 [Compound 841] | > 100

Row | SMILES | IC50 [µM]
26 | O=S(=O)(/C=C/c1ccccc1)c1ccc(Cl)cc1 [Compound 893] | > 100
27 | COC(=O)/C=C/c1ccc(O)cc1 [Compound 804] | > 100
28 | CN(C)c1ccc(/C=C/C(=O)c2ccccc2)cc1 [Compound 887] | > 100
29 | CCOCCNS(=O)(=O)/C=C/c1ccccc1 [Compound 867] | > 100
30 | NC(=O)/C(=C/n1cnc(-c2cc(C(F)(F)F)cc(C(F)(F)F)c2)n1)c1cncnc1 [Compound 904] | 1 to 10
31 | O=C(/C=C/c1ccccc1)Nc1ccc([N+](=O)[O-])cc1 [Compound 861] | > 100
32 | COC(=O)/C=C/C(=O)OC [Compound 826] | > 100
33 | O=C1CC(c2ccccc2O)Oc2ccccc21 (stereo not drawn) [Compound 816] | > 100
34 | C=CC(=O)N(C)C [Compound 829] | > 100
35 | O=S(=O)(/C=C/c1ccccc1)Oc1cccc(F)c1 [Compound 879] | > 100
36 | O=S(=O)(/C=C/c1ccccc1)N1CCCCC1 [Compound 872] | > 100
37 | COc1cc(/C=C/C(=O)O)ccc1O [Compound 803] | > 100
38 | COc1cc(/C=C/C(=O)CC(=O)/C=C/c2ccc(O)c(OC)c2)ccc1O [Compound 75] | 10 to 100
39 | O=S(=O)(/C=C/c1ccccc1)Oc1ccc(I)cc1 [Compound 877] | > 100
40 | CCC1(O)C(=O)OCc2c1cc1n(c2=O)Cc2cc3ccccc3nc2-1 (stereo not drawn) [Compound 874] | > 100
41 | CCN(Cc1ccccc1)S(=O)(=O)/C=C/c1ccccc1 [Compound 873] | > 100
42 | C=C(C)C(N)=O [Compound 825] | > 100
43 | CC(=O)/C=C/c1ccccc1 [Compound 890] | > 100
44 | O=C(/C=C/c1ccccc1)N1CCN(Cc2ccccc2)CC1 [Compound 845] | > 100
45 | CCOCCNC(=O)/C=C/c1ccccc1 [Compound 853] | > 100
46 | O=C(/C=C/c1ccc(O)cc1)c1ccccc1 [Compound 12] | 10 to 100
47 | O=C(/C=C/c1cc(F)c(F)c(F)c1)c1ccccc1 [Compound 110] | 10 to 100
48 | O=S(=O)(/C=C/c1ccccc1)Oc1ccc(Br)cc1 [Compound 880] | > 100

Row | SMILES | IC50 [µM]
49 | O=C(/C=C/c1ccc(Br)cc1)c1ccccc1 [Compound 101] | 10 to 100
50 | O=C(/C=C/c1ccccc1)Nc1c(F)cccc1F [Compound 859] | > 100
51 | CN(C)C/C=C/C(=O)O [Compound 876] | > 100
52 | O=C(/C=C/c1cccc(Cl)c1)c1ccccc1 [Compound 104] | 10 to 100
53 | CC(C)(C)OC(=O)N1CCN(C(=O)/C=C/c2ccccc2)CC1 [Compound 844] | > 100
54 | O=C(/C=C/c1ccccc1)Nc1cccnc1 [Compound 862] | > 100
55 | COc1ccc(CNC(=O)/C=C/c2ccccc2)cc1 [Compound 846] | > 100
56 | CN(c1ccccc1)S(=O)(=O)F [Compound 883] | > 100
57 | O=S(F)(=Nc1ccc(Br)cc1)N1CCC(Cc2ccccc2)CC1 (stereo not drawn) [Compound 882] | > 100
58 | O=C1CC(c2cccc(O)c2)Oc2ccccc21 (stereo not drawn) [Compound 817] | > 100
59 | CC(C)N(C(C)C)S(=O)(=O)/C=C/c1ccccc1 [Compound 871] | > 100
60 | CN(C(=O)/C=C/c1ccccc1)c1ccccc1 [Compound 863] | > 100
61 | COc1cc(/C=C/C(=O)N2CCC=CC2=O)cc(OC)c1OC [Compound 905, Piperlongumine] | 1 to 10
62 | Cc1ccc(=O)n(-c2ccccc2)c1 [Compound 836] | > 100
63 | CN(C)C(=O)/C=C/c1ccccc1 [Compound 843] | > 100
64 | C/C(O)=C(\C#N)C(=O)Nc1ccc(C(F)(F)F)cc1 [Compound 837] | > 100
65 | CS(=O)(=O)/C=C/c1ccccc1 [Compound 847] | > 100
66 | N#C/C(=C1/SC[C@@H](c2ccc(Cl)cc2Cl)S1)n1ccnc1 [Compound 835] | > 100
67 | C=CS(=O)(=O)c1ccccc1 [Compound 32] | 10 to 100
68 | O=C(/C=C/c1ccccc1)NC1CC1 [Compound 854] | > 100
69 | CCN1C(=O)C=CC1=O [Compound 838] | > 100
70 | O=C(/C=C/c1ccccc1Br)c1ccccc1 [Compound 127] | 10 to 100
71 | O=C(O)/C=C/c1ccc(O)cc1 [Compound 802] | > 100

Row | SMILES | IC50 [µM]
72 | O=C(/C=C/c1cccc(Br)c1)c1cccc(Br)c1 [Compound 896] | > 100
73 | O=C(/C=C/c1ccccc1)c1ccc(Br)cc1 [Compound 900] | > 100
74 | O=C(/C=C/c1cccc(Cl)c1)c1cccc(Cl)c1 [Compound 895] | > 100
75 | O=Cc1cc2c(cc1C#Cc1ccccc1)OCO2 [Compound 898] | > 100
76 | O=C(/C=C/c1ccccc1)N1CCCC1 [Compound 855] | > 100
77 | O=C(/C=C/c1ccc(O)cc1)c1ccc(O)cc1O [Compound 813] | > 100
78 | O=C(/C=C\n1cnc(-c2cc(C(F)(F)F)cc(C(F)(F)F)c2)n1)NNc1ccccn1 [Compound 901] | 1 to 10
79 | C=CS(C)(=O)=O [Compound 830] | > 100
80 | O=C(/C=C/c1ccccc1)c1ccc(Cl)cc1 [Compound 105] | 10 to 100
81 | O=C(/C=C/c1ccc2c(c1)OCO2)c1ccccc1 [Compound 886] | > 100
82 | O=S(F)(=Nc1ccc(Br)cc1)Oc1ccc(Br)cc1 (stereo not drawn) [Compound 881] | > 100
83 | O=C(/C=C/c1ccccc1)N1CCCCC1 [Compound 840] | > 100
84 | CCN(CC)C(=O)/C=C/c1ccccc1 [Compound 842] | > 100
85 | COc1ccc(/C=C/S(=O)(=O)c2ccc(Cl)cc2)cc1 [Compound 892] | > 100
86 | Cc1cccc(C2CCCN2S(=O)(=O)F)c1 (stereo not drawn) [Compound 884] | > 100
87 | NS(=O)(=O)/C=C/c1ccccc1 [Compound 865] | > 100
88 | O=S(=O)(/C=C/c1ccccc1)N1CCN(Cc2ccccc2)CC1 [Compound 869] | > 100
89 | CNC(=O)c1ccccc1Sc1ccc2c(/C=C/c3ccccn3)n[nH]c2c1 [Compound 834] | > 100
90 | O=c1c(O)c(-c2ccc(O)cc2)oc2ccccc12 [Compound 815] | > 100
91 | C#CCCOc1cccc(/C=C/S(=O)(=O)F)c1 [Compound 119] | 1 to 10
92 | CCN(CC)S(=O)(=O)/C=C/c1ccccc1 [Compound 868] | > 100
93 | CN(C)C/C=C/C(=O)Nc1cc2c(Nc3ccc(F)c(Cl)c3)ncnc2cc1O[C@@H]1CCOC1 [Compound 833] | > 100
